{"source": "patent US20260174858A1", "about": "“TARGETING THE m6A MRNA DEMETHYLASE FTO” (University of Virginia Patent Foundation, priority 2022, published 2026)", "key": {"human ARPE-19 cells": {"system": "human ARPE-19 cells", "test": "VEGFA release in human ARPE-19 cells", "type": "cell-based"}, "macrophage": {"system": "macrophage", "test": "mRNA abundance of other pro-angiogenic factors in macrophages (RT-PCR)", "type": "cell-based, mouse", "conditions": "FTO inhibition", "protocol": "Total RNA was extracted from mouse BMDMs or eye tissues with TRIzol™ Reagent (Thermo Fisher Scientific, 15596018, USA) and quantified by using a NanoDrop 2000 spectrophotometer (Thermo-Fisher Scientific, USA). Reverse transcription was performed using the QuantiTect Reverse Transcription kit (205313, QIAGEN). Target genes were amplified by real-time quantitative polymerase chain reaction (PCR) (Applied Biosystems, 7900 HT Fast Real-Time PCR system) with Power SYBR Green Master Mix. Relative gene expression was determined by the 2^−ΔΔCt method, and 18S rRNA or GAPDH (glyceraldehyde-3-phosphate dehydrogenase) was used as an internal control."}, "Wild type C57BL/6J mice": {"system": "Wild type C57BL/6J mice", "test": "Laser-induced choroidal neovascularization (CNV), CNV volume and F4/80 staining", "type": "in vivo, mouse", "conditions": "for Neovascularization (CNV volume): FTOi i.p. pretreatment plus 25 ng intravitreous after laser injury, day 7, isolectin B4 staining", "protocol": "Laser photocoagulation (532 nm, 180 mW, 100 ms, 75 μm) (OcuLight GL; IRIDEX Corp., Mountain View, CA, USA) was performed bilaterally (volume studies: 4 spots per eye; RNA analyses: 10 spots per eye) in 6- to 8-week-old mice on day 0 to induce CNV as previously described 1-3. For drug treatment, the mice pretreated with FTO inhibitor (FB23-2, SML2694, Sigma) or vehicle (DMSO) through intraperitoneal injection (i.p, 2 mg/kg). Then, the mice were subjected to laser photocoagulation followed by intravitreous injection of the FTO inhibitor (25 ng/0.5 μl per eye) or vehicle. At day 3 after laser injury, the mice were administered the FTO inhibitor (2 mg/kg) or vehicle via intraperitoneal injection. At day 7, the eyes were collected for fluorescein labeled-isolectin B4 and F4/80 staining and for neovascular volume quantification.\nRPE flat mounts were prepared as previously described 5. Briefly, at day 3 or 7 after laser injury, mice eyes were enucleated and dissected as retina and sclera-RPE-choroid complexes. The RPE-choroid sheets were immediately fixed in 4% paraformaldehyde (Electron Microscopy Sciences, 50-980-495, USA) in phosphate-buffered saline for 1 hour. […] As described previously^1, CNV volumes were determined by labeling with fluorescein labeled Griffonia Simplicifolia Lectin I (GSL I) isolectin B4 (Vector Laboratories, FL-1201, USA). […] FTO expression was visualized by immunolabeling with anti-FTO antibody (AdipoGen Life Sciences, AG-20A-0083, USA), and the specificity of labeling was assessed using isotype serum immunolabeling. […] Fluorescence images were captured by Nikon AIR laser scanning confocal microscope.\nLaser photocoagulation (532 nm, 180 mW, 100 ms, 75 μm) (OcuLight GL; IRIDEX Corp., Mountain View, CA, USA) was performed bilaterally (volume studies: four spots per eye; protein analyses: 20 spots per eye) in 6- to 8-week-old male mice on day 0 to induce CNV in a masked fashion. […] Choroidal neovascularization was visualized using a blue argon laser wavelength (488 nm) and a scanning laser confocal microscope and quantified using Image J software."}, "Vegfa mRNA": {"system": "Vegfa mRNA", "test": "MeRIP-qPCR of m6A methylated Vegfa mRNA in BMDMs", "type": "cell-based, mouse", "conditions": "BMDMs treated with FTOi vs DMSO, MeRIP and qPCR", "protocol": "To validate m6A methylation of Vegfa mRNA and perturbations induced by FTOi treatment, we performed MeRIP-qPCR by following the EpiMark® N6-Methyladenosine Enrichment Kit protocol (New England Biolabs, E1610S, USA). Briefly, total RNA was extracted from mouse BMDMs treated with 5 μM of FTO inhibitor or vehicle for 24 hours by using TRIzol™ Reagent (Thermo Fisher Scientific, 15596018, USA). 100 μg of total RNA from each group was mixed with unmodified RNA (Negative control, NC). Next, 20 μg of these mixtures was incubated with m6A antibody (Cell Signaling Technology, D9D9W, USA) and then pulled down using Pierce™ Protein A/G Magnetic Beads (Thermo Fisher Scientific, 88802, USA) overnight. The enriched m6A positive RNAs were then eluted and purified by NucleoSpin RNA Clean-Up (Macherey-Nagel, 740948.25, USA), and the amounts of m6A-modified Vegfa mRNA or negative control RNAs were determined by reverse transcription and qPCR."}, "Wild type BMDMs": {"system": "Wild type BMDMs", "test": "LPS-induced IL-6 release on BMDMs (ELISA)", "type": "cell-based, mouse", "conditions": "FB23-2 20 uM pre-treatment 1 hour, then 250 ng/ml LPS 6 hours, p<0.0001", "protocol": "Primary WT or mutant mouse bone marrow derived macrophages (BMDMs) were isolated as previously described (4). BMDMs were cultured in IMDM (Gibco) basal medium containing 10% fetal bovine serum (FBS), 30% L929 supernatants, nonessential amino acids, sodium pyruvate, 2-mercaptoethanol, and antibiotics. THP-1 cells were cultured in RPMI 1640 medium with 10% FBS and antibiotics. Human RPE cells were isolated as previously described and cultured in DMEM medium with 10% FBS and antibiotics. All cells were maintained at 37° C. in a 5% CO2 environment.\nSecreted IL-6 in the BMDMs medium or serum IL-6, TNF-alpha, and IL-1alpha were detected by ELISA (Mouse IL-1 alpha/IL-1F1 DuoSet, R&D Systems, DY400; Mouse IL-6 DuoSet, R&D Systems, DY406; Mouse TNF-alpha DuoSet, R&D Systems, DY410) according to the manufacturer's instructions."}}}
{"smiles": "Cc1noc(C)c1-c1cc(Cl)c(Nc2ccccc2C(=O)NO)c(Cl)c1", "note": "[FB23-2]", "values": [{"measurement": "VEGFA release", "setting": "human ARPE-19 cells", "result": "suppressed the VEGFA release"}, {"measurement": "mRNA abundance of other pro-angiogenic factors (Plgf, Pdgfa)", "setting": "macrophage", "result": "did not significantly alter the mRNA abundance"}, {"measurement": "Neovascularization (CNV volume)", "setting": "Wild type C57BL/6J mice", "result": "inhibits angiogenesis"}, {"measurement": "Neovascularization (CNV volume)", "setting": "Wild type C57BL/6J mice; listed as selective inhibitor", "result": "significant reduction in neovascularization"}, {"measurement": "F4/80 macrophage recruitment", "setting": "Wild type C57BL/6J mice; laser-induced CNV, FTO inhibitor in vivo, F4/80 staining", "result": "not in F4/80 macrophage recruitment"}, {"measurement": "Level of m6A methylated Vegfa mRNA", "setting": "Vegfa mRNA", "result": "increase the level of methylated (m6A) VEGFA mRNA"}, {"measurement": "Level of m6A methylated Vegfa mRNA", "setting": "Vegfa mRNA; listed as FTO inhibitor", "result": "significantly increased the abundance of m6A methylated Vegfa mRNA"}, {"measurement": "LPS-induced IL-6 release", "setting": "Wild type BMDMs", "result": "reduces LPS-induced IL-6 release"}]}
